Data taken from ChEMBL document CHEMBL4364295, “Discovery of a First-in-Class Receptor Interacting Protein 2 (RIP2) Kinase Specific Clinical Candidate, 2-((4-(Benzo[d]thiazol-5-ylamino)-6-(tert-butylsulfonyl)quinazolin-7-yl)oxy)ethyl Dihydrogen Phosphate, for the Treatment of Inflammatory Diseases” (J Med Chem, 2019).
Values after ≈ are worked out from the molar mass of the structure shown. Active and inactive are the calls of the source. The calls are words filed in the database; no cut-off is given here.

What was measured:
[1] = AUC in Sprague-Dawley rat assessed as 2-((4-(Benzo[d]thiazol-5-ylamino)-6-(tert-butylsulfonyl)quinazolin-7-yl)oxy)ethanol level at 2 mg/kg, po by LC/MS/MS analysis; format: ADME, organism-based; settings: in vivo
[2] = AUC in Sprague-Dawley rat at 2 mg/kg, po by LC/MS/MS analysis; format: ADME, organism-based; settings: in vivo
[3] = Solubility of the compound in FaSSIF measured after 4 hrs; format: physicochemical
[4] = Drug uptake in po dosed Sprague-Dawley rat systemic circulation by LC/MS/MS analysis; format: ADME, organism-based; settings: in vivo
[5] = Solubility of the compound in FaSSIF; format: physicochemical; settings: simulated gi fluid
[6] = Solubility of the compound in FeSSIF; format: physicochemical; settings: simulated gi fluid
Mus musculus [7] = experiment: (§1) Antiinflammatory activity TNBS-induced mouse model of colitis assessed as decrease in colitis score at 7.5 to 145 mg/kg, po administered twice daily via gavage pretreated for 2 days followed by TNBS stimulation on day 3 and subsequent compound dosing from day 3 to 6 measured post-last dose by histological analysis; format: functional, organism-based
Cricetinae = experiment: Displacement of [125I]2-iodomelatonin from hamster MT3 receptor at 10 uM measured after 60 mins by scintillation counting method
[8] = target: Vascular endothelial growth factor receptor 3 (Homo sapiens) (UniProt P35916); experiment: Inhibition of human VEGFR3 at 1 uM using poly[Glu:Tyr] (4:1) as substrate in presence of [gamma-33P]ATP relative to control
Homo sapiens [9] = species: Homo sapiens; experiment: Inhibition of NOD2/IL1R in human PBMC assessed as reduction in MDP/Il1alpha-induced IL6 production preincubated for 30 mins followed by […] and measured after 6 hrs by immunoassay
Homo sapiens [10] = species: Homo sapiens; experiment: Inhibition of NOD2/TLR5 in human PBMC assessed as reduction in MDP/flagellin-induced IL6 production preincubated for 30 mins followed by […] and measured after 6 hrs by immunoassay
Homo sapiens [11] = species: Homo sapiens; experiment: Inhibition of NOD2/TLR4 in human PBMC assessed as reduction in MDP/LPS-induced IL6 production preincubated for 30 mins followed by […] and measured after 6 hrs by immunoassay
Homo sapiens [12] = species: Homo sapiens; experiment: (§2) Inhibition of NOD2/TLR2 in human PBMC assessed as reduction in MDP/Pam2CSK4-induced TNFalpha production preincubated for 30 mins followed by MDP/Pam2CSK4 stimulation and measured after 6 hrs by immunoassay
[13] = as §2
Homo sapiens [14] = species: Homo sapiens; experiment: Inhibition of NOD2/TLR2 in human PBMC assessed as reduction in MDP/Pam2CSK4-induced IL6 production preincubated for 30 mins followed by MDP/Pam2CSK4 stimulation and measured after 6 hrs by immunoassay
Homo sapiens [15] = species: Homo sapiens; experiment: Inhibition of NOD2/TLR5 in human PBMC assessed as reduction in MDP/flagellin-induced TNFalpha production preincubated for 30 mins followed by […] and measured after 6 hrs by immunoassay
Homo sapiens [16] = species: Homo sapiens; experiment: Inhibition of NOD2/IL1R in human PBMC assessed as reduction in MDP/Il1alpha-induced TNFalpha production preincubated for 30 mins followed by […] and measured after 6 hrs by immunoassay
Homo sapiens [17] = species: Homo sapiens; experiment: Inhibition of NOD2/TLR4 in human PBMC assessed as reduction in MDP/LPS-induced TNFalpha production preincubated for 30 mins followed by […] and measured after 6 hrs by immunoassay
Intestinal mucosa [18] = experiment: Antiinflammatory activity in ulcerative colitis patient derived inflamed intestinal mucosa assessed as reduction in IL1beta production at 1 uM measured after overnight incubation by immunoassay; format: functional, tissue-based; settings: Homo sapiens
Intestinal mucosa [19] = experiment: Antiinflammatory activity in crohn's disease patient derived inflamed intestinal mucosa assessed as reduction in IL6 production at 1 uM measured after overnight incubation by immunoassay; format: functional, tissue-based; settings: Homo sapiens
Intestinal mucosa [20] = experiment: Antiinflammatory activity in crohn's disease patient derived inflamed intestinal mucosa assessed as reduction in IL1beta production at 1 uM measured after overnight incubation by immunoassay; format: functional, tissue-based; settings: Homo sapiens
Intestinal mucosa [21] = experiment: Antiinflammatory activity in ulcerative colitis patient derived inflamed intestinal mucosa assessed as reduction in IL6 production at 1 uM measured after overnight incubation by immunoassay; format: functional, tissue-based; settings: Homo sapiens
Mus musculus [22] = experiment: as §1, with “1.5” for “7.5 to 145”; format: functional, organism-based
[23] = Prodrug conversion in Sprague-Dawley rat hepatic portal vein assessed as 2-((4-(Benzo[d]thiazol-5-ylamino)-6-(tert-butylsulfonyl)quinazolin-7-yl)oxy)ethanol formation; format: ADME; settings: in vivo
Cytochrome P450 3A4 [24] = target: T1, Cytochrome P450 3A4 (Homo sapiens, UniProt P08684); experiment: Inhibition of CYP3A4 (unknown origin) at 126 nM; format: ADME; settings: 0.126 µM
[25] = target: T2, Voltage-gated inwardly rectifying potassium channel KCNH2 (Homo sapiens, UniProt Q12809); experiment: Inhibition of human ERG (1159 residues) expressed in CHOK1 cells at 7.3 uM at -80 mV holding potential measured after 5 mins by QPatch electrophysiology method; format: cell-based
Cytochrome P450 3A4 [26] = target: T1, Cytochrome P450 3A4; experiment: Time dependent inhibition of CYP3A4 (unknown origin); format: ADME
CYP3A4 = CYP3A4 (Homo sapiens, UniProt P08684); experiment: Ratio of IC50 for time dependent inhibition of CYP3A4 (unknown origin) in presence of NADPH to IC50 for time dependent inhibition of CYP3A4 (unknown origin) in absence of NADPH; settings: read-out: Ratio IC50
[27] = target: T3, Receptor-interacting serine/threonine-protein kinase 2 (Homo sapiens, UniProt O43353); experiment: Inhibition of fluorescent-labelled ligand binding to human RIP2K preincubated for 10 mins followed by fluorescent-labelled ligand addition and measured after 10 mins by fluorescence polarization assay
[28] = target: T3, Receptor-interacting serine/threonine-protein kinase 2; experiment: Inhibition of RIPK2 in human whole blood assessed as reduction in MDP-induced TNFalpha production preincubated for 30 mins followed by MDP-stimulation and measured after 6 hrs by immunoassay; format: tissue-based
[29] = target: T2, Voltage-gated inwardly rectifying potassium channel KCNH2; experiment: Inhibition of human ERG (1159 residues) expressed in CHOK1 cells at -80 mV holding potential measured after 5 mins by QPatch electrophysiology method; format: cell-based

T3 sequence (O43353 whole entry): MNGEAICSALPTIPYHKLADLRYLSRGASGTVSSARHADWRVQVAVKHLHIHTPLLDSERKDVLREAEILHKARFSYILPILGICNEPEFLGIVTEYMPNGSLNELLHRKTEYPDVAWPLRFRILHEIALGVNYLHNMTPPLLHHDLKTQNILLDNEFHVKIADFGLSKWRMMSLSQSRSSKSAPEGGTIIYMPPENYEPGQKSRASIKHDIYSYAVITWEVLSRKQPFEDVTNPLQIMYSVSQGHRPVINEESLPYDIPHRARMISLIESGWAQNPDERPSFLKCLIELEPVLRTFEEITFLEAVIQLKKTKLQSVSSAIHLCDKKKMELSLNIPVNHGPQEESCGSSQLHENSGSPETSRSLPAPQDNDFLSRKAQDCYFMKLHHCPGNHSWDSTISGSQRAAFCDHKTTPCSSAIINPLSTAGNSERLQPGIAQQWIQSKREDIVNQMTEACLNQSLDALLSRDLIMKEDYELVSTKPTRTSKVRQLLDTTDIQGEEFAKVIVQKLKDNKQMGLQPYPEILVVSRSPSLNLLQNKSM
T2 sequence (Q12809 whole entry): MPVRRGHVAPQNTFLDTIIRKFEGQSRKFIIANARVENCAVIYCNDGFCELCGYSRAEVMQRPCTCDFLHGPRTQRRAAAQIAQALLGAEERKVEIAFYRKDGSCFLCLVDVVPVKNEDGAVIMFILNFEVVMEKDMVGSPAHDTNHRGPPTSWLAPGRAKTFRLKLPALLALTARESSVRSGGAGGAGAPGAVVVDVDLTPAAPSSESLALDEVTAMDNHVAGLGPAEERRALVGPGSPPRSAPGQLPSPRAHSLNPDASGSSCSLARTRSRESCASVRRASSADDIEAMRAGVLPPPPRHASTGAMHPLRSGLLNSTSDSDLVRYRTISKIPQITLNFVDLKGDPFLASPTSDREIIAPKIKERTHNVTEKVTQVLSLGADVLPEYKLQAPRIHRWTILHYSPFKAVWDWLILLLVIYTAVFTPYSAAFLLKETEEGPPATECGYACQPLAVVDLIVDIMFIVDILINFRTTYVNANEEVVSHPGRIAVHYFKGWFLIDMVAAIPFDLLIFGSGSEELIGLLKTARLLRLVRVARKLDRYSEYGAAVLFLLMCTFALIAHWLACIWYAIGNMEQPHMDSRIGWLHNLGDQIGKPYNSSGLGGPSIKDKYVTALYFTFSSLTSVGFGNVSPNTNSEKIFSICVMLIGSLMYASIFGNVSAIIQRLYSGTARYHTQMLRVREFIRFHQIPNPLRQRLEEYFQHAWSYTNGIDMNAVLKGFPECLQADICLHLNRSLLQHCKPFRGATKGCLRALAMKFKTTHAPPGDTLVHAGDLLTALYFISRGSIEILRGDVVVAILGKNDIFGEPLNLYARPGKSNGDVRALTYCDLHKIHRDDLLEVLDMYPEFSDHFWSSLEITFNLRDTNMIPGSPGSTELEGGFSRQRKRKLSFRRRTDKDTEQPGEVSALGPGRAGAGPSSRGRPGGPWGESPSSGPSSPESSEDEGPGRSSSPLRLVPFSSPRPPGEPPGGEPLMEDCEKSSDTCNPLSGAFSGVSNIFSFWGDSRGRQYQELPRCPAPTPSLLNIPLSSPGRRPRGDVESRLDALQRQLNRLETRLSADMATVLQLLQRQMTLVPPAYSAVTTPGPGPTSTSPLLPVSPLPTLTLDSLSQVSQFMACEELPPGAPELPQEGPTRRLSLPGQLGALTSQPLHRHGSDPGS
T1 sequence (P08684 whole entry): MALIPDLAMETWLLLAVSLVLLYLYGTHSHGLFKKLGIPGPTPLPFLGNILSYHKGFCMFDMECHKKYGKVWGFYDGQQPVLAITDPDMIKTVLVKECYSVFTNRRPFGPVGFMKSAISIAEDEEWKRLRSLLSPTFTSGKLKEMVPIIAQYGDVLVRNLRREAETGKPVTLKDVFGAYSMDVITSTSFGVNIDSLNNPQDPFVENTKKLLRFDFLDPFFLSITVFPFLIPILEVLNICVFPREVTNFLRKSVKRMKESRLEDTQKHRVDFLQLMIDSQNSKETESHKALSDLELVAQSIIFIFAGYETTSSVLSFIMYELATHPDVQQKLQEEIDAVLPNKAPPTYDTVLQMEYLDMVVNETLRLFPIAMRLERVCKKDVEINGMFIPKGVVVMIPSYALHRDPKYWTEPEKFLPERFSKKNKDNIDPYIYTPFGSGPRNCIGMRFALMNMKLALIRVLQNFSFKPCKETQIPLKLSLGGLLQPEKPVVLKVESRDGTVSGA
Sequence of CYP3A4 (P08684 whole entry): as above
Sequence of Vascular endothelial growth factor receptor 3 (Homo sapiens) (P35916 whole entry): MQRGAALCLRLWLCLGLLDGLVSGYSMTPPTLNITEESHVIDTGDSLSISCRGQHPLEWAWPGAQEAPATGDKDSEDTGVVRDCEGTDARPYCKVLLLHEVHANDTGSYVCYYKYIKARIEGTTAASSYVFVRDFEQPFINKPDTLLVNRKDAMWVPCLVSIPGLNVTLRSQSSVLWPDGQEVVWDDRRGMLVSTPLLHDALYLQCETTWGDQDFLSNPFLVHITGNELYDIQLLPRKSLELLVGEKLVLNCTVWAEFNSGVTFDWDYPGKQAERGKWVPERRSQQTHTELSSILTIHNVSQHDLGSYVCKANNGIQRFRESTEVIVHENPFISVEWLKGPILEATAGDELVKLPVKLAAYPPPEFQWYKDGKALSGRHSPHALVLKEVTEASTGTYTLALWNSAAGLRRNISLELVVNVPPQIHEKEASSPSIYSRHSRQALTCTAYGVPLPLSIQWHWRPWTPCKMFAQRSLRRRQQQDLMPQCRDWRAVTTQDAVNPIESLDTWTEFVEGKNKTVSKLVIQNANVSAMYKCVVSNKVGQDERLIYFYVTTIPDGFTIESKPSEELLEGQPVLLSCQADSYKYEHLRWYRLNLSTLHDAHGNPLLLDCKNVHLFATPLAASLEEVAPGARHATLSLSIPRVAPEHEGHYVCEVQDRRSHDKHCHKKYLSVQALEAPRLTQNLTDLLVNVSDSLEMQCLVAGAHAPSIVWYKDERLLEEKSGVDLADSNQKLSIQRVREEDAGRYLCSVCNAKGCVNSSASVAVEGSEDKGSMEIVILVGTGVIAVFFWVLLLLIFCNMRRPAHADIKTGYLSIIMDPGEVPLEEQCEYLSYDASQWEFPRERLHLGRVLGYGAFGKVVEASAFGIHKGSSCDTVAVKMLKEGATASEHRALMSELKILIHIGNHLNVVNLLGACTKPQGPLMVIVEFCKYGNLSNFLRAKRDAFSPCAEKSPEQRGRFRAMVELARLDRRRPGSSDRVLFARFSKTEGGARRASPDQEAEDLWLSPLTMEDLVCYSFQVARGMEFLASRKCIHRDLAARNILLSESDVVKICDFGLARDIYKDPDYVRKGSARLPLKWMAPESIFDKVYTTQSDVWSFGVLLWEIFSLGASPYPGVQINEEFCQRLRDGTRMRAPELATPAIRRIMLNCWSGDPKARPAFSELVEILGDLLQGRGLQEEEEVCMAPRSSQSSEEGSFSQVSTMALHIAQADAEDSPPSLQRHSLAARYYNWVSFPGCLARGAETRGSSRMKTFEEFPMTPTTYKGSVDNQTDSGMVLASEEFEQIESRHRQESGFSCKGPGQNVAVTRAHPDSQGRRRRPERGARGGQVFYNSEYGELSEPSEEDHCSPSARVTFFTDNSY

CN(C)C(=O)OCCOc1cc2ncnc(Nc3ccc4scnc4c3)c2cc1S(=O)(=O)C(C)(C)C
AUC [1]: 10 ng·h/mL | AUC [2]: 10 ng·h/mL | solubility at 4 h [3]: 12 µg/mL (≈ 22.7 µM) | Drug uptake [4]: Not Active

CC(C)(C)S(=O)(=O)c1cc2c(Nc3ccc4scnc4c3)ncnc2cc1OCCOS(=O)(=O)[O-].[Na+]
solubility at 4 h [3]: 2460 µg/mL | Drug uptake [4]: Not Active

CC(C)(C)S(=O)(=O)c1cc2c(Nc3ccc4scnc4c3)ncnc2cc1OCCOP(=O)([O-])[O-].[Na+].[Na+]
solubility [5]: Soluble | solubility [6]: Soluble

CC(C)(C)S(=O)(=O)c1cc2c(Nc3ccc4scnc4c3)ncnc2cc1OCCOP(=O)(O)O
Activity (Mus musculus [7]): Active | inhibition (Cricetinae): Active | inhibition [8]: > 90%

CC(C)S(=O)(=O)c1ccc2nccc(Nc3n[nH]c4ccc(F)cc34)c2c1
inhibition (Homo sapiens [9]): Active | inhibition (Homo sapiens [10]): Active | inhibition (Homo sapiens [11]): Active | inhibition (Homo sapiens [12]): Dose-dependent effect | IC50 [13]: 25 nM | inhibition (Homo sapiens [14]): Active | inhibition (Homo sapiens [15]): Active | inhibition (Homo sapiens [16]): Active | inhibition (Homo sapiens [17]): Active

C[C@]12C=CC(=O)C=C1CC[C@@H]1[C@@H]2[C@@H](O)C[C@@]2(C)[C@H]1CC[C@]2(O)C(=O)CO
Activity (Intestinal mucosa [18]): Active | Activity (Intestinal mucosa [19]): Active | Activity (Intestinal mucosa [20]): Active | Activity (Intestinal mucosa [21]): Active | Activity (Mus musculus [22]): Active

CC(C)(C)S(=O)(=O)c1cc2c(Nc3ccc4scnc4c3)ncnc2cc1OCCOP(=O)(O)O.Cl
solubility [5]: Soluble | solubility [6]: Soluble

CC(C)[C@H](N)C(=O)OCCOc1cc2ncnc(Nc3ccc4scnc4c3)c2cc1S(=O)(=O)C(C)(C)C
AUC [1]: 730 ng·h/mL | Drug metabolism [23]: Metabolite_Detected | inhibition (INH) (Cytochrome P450 3A4 [24]): Active | inhibition (INH) [25]: Active | inhibition (INH) (Cytochrome P450 3A4 [26]): Active | Drug uptake [4]: Not Active | IC50 shift (CYP3A4): 2.9

CC(C)[C@H](N)C(=O)OCCOc1cc2ncnc(Nc3ccc4scnc4c3)c2cc1S(=O)(=O)C(C)(C)C.Cl.Cl
solubility at 4 h [3]: 690 µg/mL

COc1cc2ncnc(Nc3ccc4scnc4c3)c2cc1S(=O)(=O)C(C)(C)C
IC50 [27]: 4 nM | IC50 [28]: 374 nM | IC50 [29]: > 30000 nM
